{"source": "paper PMC5078011", "about": "“The oleocanthal-based homovanillyl sinapate as a novel c-Met inhibitor” (Oncotarget, 2016)", "target": "c-Met (M1250T) (Homo sapiens, UniProt P08581, M1250T)", "sequence (P08581 956-1390 M1250T limits assumed)": "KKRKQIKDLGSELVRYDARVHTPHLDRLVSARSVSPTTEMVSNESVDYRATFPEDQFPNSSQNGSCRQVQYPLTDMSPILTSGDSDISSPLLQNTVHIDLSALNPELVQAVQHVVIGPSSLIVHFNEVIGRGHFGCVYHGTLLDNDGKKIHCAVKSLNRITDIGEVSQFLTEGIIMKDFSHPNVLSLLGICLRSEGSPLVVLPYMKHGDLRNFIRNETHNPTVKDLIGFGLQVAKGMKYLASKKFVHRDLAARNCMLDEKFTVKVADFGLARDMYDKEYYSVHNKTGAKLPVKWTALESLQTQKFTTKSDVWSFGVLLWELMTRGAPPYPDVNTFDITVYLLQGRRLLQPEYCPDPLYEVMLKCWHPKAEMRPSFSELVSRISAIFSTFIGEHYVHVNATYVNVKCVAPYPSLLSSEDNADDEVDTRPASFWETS", "assay": "Z'-LYTE Tyr6 peptide kinase assay, recombinant M1250T c-Met", "type": "biochemical", "details": "read-out: (-)-Oleocanthal^a / IC50 (μM) ± SEM", "data": [{"smiles": "C/C=C(/C=O)[C@@H](CC=O)CC(=O)OCCc1ccc(O)cc1", "note": "[S (−)-oleocanthal]", "values": [{"measurement": "IC50", "value": 3.9, "unit": "µM"}]}]}
